The values below come from ChEMBL document CHEMBL5550171, “Poly (ADP-ribose) polymerase (PARP) inhibitors as anticancer agents: An outlook on clinical progress, synthetic strategies, biological activity, and structure-activity relationship” (Eur J Med Chem, 2024).

Series [1] concerns Panel NCI-60 (60 carcinoma cell lines). The series is described as follows: Cytotoxicity against human Panel NCI-60 (60 carcinoma cell lines). The class given is functional, cell-based.
Series [2] relates to SK-OV-3. The series is described as follows: Antiproliferative activity against human SK-OV-3 cells assessed as reduction in cell growth. The class given is functional, cell-based.
Another series relates to A2780. Nature of the series: Antiproliferative activity against human A2780 cells assessed as reduction in cell growth. Type of series: functional, cell-based.
Series [3] relates to MCF7. Nature of the series: Antiproliferative activity against human MCF7 cells assessed as reduction in cell growth. Type of series: functional, cell-based.
Series [4] deals with MDA-MB-231. The series is described as follows: Antiproliferative activity against human MDA-MB-231 cells assessed as reduction in cell growth. The class given is functional, cell-based.
The next series deals with HCT-116. The series is described as follows: Antiproliferative activity against human HCT-116 cells assessed as reduction in cell growth. Type of series: functional, cell-based.
For series [5], the system named is SK-OV-3. The series is described as follows: Inhibition of colony formation in human SK-OV-3 cells at 10 uM by crystal violet staining assay. The class given is functional.
Series [6] deals with A549. Nature of the series: Antiproliferative activity against human A549 cells assessed as reduction in cell growth measured for 72 hrs by MTT assay. Type of series: functional, cell-based. The note with it: A549, 72 h. On the technique in general: Formazan colour is commonly taken as a measure of viable cells.
The subject of series [7] is A549. The series is described as follows: Induction of apoptosis in human A549 cells at 1 uM incubated for 48 hrs by Annexin V-FITC/PI staining based flow cytometry analysis relative to control. Type of series: functional. For orientation: Flow cytometry measures light scatter and fluorescence of single cells or particles in a stream.
Series [8] deals with A549. Nature of the series: Induction of apoptosis in human A549 cells at 2 uM incubated for 48 hrs by Annexin V-FITC/PI staining based flow cytometry analysis relative to control. The class given is functional.
Series [9] deals with A549. The series is described as follows: Induction of apoptosis in human A549 cells at 4 uM incubated for 48 hrs by Annexin V-FITC/PI staining based flow cytometry analysis relative to control. The class given is functional.
Series [10] addresses T1, Protein cereblon/Poly [ADP-ribose] polymerase 1 (Homo sapiens, UniProt P09874+Q96SW2). The series is described as follows: PROTAC activity at CRBN/PARP1 in human MDA-MB-231 cells assessed as induction of PARP1 degradation at 0.1 uM relative to control. Type of series: cell-based.
Target sequence in this assay (P09874 2-1014 limits assumed): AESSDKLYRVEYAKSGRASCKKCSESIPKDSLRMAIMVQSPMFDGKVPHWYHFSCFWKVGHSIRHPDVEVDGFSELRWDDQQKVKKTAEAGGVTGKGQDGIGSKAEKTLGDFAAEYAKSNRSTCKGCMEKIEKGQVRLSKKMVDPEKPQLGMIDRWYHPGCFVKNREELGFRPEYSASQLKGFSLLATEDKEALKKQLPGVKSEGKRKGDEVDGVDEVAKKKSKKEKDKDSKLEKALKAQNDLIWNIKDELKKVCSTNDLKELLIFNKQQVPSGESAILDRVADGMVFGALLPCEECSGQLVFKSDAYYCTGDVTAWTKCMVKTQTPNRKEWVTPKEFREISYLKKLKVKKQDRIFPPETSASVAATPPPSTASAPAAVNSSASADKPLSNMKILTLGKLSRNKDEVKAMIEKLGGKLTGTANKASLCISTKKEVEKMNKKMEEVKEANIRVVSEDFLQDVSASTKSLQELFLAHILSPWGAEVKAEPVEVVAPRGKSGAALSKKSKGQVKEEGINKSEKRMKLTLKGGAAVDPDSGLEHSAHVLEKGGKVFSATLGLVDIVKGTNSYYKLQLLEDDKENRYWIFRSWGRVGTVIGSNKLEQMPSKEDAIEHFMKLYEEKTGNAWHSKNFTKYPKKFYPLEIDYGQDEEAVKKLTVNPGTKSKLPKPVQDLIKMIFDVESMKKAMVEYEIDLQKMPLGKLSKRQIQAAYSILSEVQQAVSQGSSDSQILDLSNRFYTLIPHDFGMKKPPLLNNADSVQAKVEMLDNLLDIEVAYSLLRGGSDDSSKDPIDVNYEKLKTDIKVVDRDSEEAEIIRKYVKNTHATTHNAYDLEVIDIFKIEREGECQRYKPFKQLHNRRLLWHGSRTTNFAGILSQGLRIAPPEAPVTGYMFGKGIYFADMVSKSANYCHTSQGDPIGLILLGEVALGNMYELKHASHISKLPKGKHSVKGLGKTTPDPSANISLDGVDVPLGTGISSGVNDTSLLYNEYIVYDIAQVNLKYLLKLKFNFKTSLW
Target sequence in this assay (Q96SW2 whole entry partner): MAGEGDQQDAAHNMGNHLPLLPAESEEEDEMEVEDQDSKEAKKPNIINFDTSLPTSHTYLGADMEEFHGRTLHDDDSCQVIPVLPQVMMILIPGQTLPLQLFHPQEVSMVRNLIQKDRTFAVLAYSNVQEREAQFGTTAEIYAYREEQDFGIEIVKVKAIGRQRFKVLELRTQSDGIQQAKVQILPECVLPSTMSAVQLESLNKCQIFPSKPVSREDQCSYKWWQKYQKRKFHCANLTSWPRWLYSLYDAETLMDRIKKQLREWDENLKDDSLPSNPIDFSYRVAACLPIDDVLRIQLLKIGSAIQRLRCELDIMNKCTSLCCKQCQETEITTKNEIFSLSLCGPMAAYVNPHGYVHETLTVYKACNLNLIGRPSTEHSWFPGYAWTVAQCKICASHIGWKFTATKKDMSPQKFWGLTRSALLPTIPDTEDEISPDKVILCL
The subject of series [11] is MDA-MB-231. The series is described as follows: Antiproliferative activity against human MDA-MB-231 cells assessed as reduction in cell viability at 10 uM after 24 hrs by CCK8 assay relative to control. The class given is functional.
Series [12] relates to MDA-MB-231. Nature of the series: Antiproliferative activity against human MDA-MB-231 cells assessed as reduction in cell viability at 1 uM after 24 hrs by CCK8 assay relative to control. Type of series: functional.
The target of series [13] is T1, Protein cereblon/Poly [ADP-ribose] polymerase 1. The series is described as follows: PROTAC activity at CRBN/PARP1 in human MDA-MB-231 cells assessed as […]. The class given is cell-based.
Target sequence in this assay (P09874 whole entry): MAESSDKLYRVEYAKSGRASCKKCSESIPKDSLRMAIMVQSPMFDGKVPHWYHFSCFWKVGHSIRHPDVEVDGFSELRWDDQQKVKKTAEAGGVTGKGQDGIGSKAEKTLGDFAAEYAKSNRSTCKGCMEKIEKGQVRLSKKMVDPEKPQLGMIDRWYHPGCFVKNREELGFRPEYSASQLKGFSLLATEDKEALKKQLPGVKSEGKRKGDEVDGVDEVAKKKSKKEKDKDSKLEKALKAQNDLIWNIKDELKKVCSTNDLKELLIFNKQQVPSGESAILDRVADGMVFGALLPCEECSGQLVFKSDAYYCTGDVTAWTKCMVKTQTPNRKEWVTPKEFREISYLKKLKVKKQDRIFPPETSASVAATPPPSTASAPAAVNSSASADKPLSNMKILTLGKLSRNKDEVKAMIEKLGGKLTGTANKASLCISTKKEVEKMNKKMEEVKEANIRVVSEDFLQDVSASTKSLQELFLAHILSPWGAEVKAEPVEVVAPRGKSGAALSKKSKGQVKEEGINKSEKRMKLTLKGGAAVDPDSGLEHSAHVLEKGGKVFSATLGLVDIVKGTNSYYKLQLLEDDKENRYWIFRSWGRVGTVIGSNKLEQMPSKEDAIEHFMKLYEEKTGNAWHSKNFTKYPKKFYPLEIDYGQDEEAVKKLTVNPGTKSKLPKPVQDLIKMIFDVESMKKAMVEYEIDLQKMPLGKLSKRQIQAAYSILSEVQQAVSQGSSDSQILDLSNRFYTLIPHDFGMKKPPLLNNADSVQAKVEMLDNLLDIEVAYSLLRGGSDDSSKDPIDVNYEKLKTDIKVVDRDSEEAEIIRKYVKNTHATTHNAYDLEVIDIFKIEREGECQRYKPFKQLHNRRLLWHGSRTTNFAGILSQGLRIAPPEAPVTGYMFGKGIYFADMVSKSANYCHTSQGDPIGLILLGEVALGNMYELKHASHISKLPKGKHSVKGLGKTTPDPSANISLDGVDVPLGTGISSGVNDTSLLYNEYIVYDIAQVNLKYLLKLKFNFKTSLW
Target sequence in this assay (Q96SW2 whole entry): as the sequence (Q96SW2 whole entry partner) above
For series [14], the system named is MDA-MB-231. The series is described as follows: Antiproliferative activity against human MDA-MB-231 cells assessed as reduction in cell viability after 24 hrs by CCK8 assay. As to conditions: MDA-MB-231, 24 h. Type of series: functional, cell-based.
The subject of series [15] is MDA-MB-231. Nature of the series: Antitumor activity against human MDA-MB-231 cells xenografted in mouse assessed as tumor growth inhibition at 40 mg/kg, po relative to control. The class given is functional. As to conditions: read-out: TGI. On the technique in general: A xenograft is tissue or cells of one species grown in another, often human tumour cells in immunodeficient mice.

Series [16] deals with Poly [ADP-ribose] polymerase 1 (Homo sapiens, UniProt P09874). The series is described as follows: Inhibition of human PARP1.
Chain of Poly [ADP-ribose] polymerase 1 (P09874 whole entry): as the sequence (P09874 whole entry) above
A further series relates to MDA-MB-436. Nature of the series: Antiproliferative activity against human MDA-MB-436 cells. The class given is functional, cell-based.
Series [17] can be described thus: Cytotoxicity against human WI-38 cells assessed as reduction in cell viability incubated for 48 hrs by MTT assay. Type of series: toxicity, cell-based.
In series [18] the target is Protein mono-ADP-ribosyltransferase PARP3 (Homo sapiens, UniProt Q9Y6F1). Nature of the series: Inhibition of PARP3 (unknown origin).
Chain of Protein mono-ADP-ribosyltransferase PARP3 (Q9Y6F1 whole entry): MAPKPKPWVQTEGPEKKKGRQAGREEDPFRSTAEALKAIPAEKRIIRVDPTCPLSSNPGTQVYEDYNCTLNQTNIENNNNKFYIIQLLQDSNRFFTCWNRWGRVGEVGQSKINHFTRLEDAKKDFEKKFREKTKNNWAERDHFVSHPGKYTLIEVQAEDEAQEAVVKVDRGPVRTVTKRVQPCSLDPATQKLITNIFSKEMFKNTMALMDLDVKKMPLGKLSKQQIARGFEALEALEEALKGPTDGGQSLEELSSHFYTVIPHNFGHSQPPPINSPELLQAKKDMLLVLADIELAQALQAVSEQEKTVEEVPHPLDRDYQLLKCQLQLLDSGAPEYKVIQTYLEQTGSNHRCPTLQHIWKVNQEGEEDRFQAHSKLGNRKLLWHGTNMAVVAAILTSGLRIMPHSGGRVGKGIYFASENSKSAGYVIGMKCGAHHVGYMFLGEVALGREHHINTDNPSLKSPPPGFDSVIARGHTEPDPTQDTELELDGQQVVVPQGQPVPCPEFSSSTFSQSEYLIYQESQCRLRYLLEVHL
For series [19], the system named is MDA-MB-231. The series is described as follows: Cytotoxicity against human MDA-MB-231 cells assessed as reduction in cell viability measured for 48 hrs by MTT assay. The note with it: MDA-MB-231, 48 h. Type of series: functional, cell-based.
Series [20] concerns MCF7. Nature of the series: Cytotoxicity against human MCF7 cells assessed as reduction in cell viability measured for 48 hrs by MTT assay. As to conditions: MCF7, 48 h. Type of series: functional, cell-based.

Each structure is given as a SMILES string.

Usually IC50 stands for the concentration at which inhibition is half-maximal. The molecule `CC(=O)c1nnn(-c2ccc(Br)cc2)c1C` had an IC50 in [1] of 0.018 µM.
By inhibition is commonly meant the drop in the measured response relative to a control, in per cent. A low value points to a weak effect. Consider `CCNC(=S)N/N=C\c1ccc(-c2nc3c(oc4ccccc43)c(=O)[nH]2)cc1`, for which the IC50 with SK-OV-3 [2] amounted to 4.98 µM; in the series with A2780 it was 24.8 µM; in the series on MCF7 [3], 38.1 µM; in the series with MDA-MB-231 [4], 47.6 µM; in the series on HCT-116, 8.75 µM. For the same molecule, at 10 µM the inhibition in the series with SK-OV-3 [5] was 78.1%.
In the case of `O=C1CCN(Cc2cn(-c3ccccc3F)nn2)C2(CCCCC2)c2ccccc21`, the IC50 with A549 [6] was found to be 1.95 µM. The Activity in the series with A549 [7] came to 8%; in the series with A549 [8], 10.9%; with A549 [9] it was 19%.
Regarding `NC(=O)c1cccc2cn(-c3ccc(C4CCCN(CCC5CCN(CCC6CCN(c7ccc8c(c7)C(=O)N(C7CCC(=O)NC7=O)C8=O)CC6)CC5)C4)cc3)nc12` (stereo not drawn), the Activity in series [10] was determined as 88%; in the series with MDA-MB-231 [11] it was 11.78%; in the series with MDA-MB-231 [12], 65.84%. In series [13], the DC50 was 0.0252 µM. The IC50 with MDA-MB-231 [14] worked out at 1.04 µM. The inhibition in vivo at 40 mg/kg with MDA-MB-231 [15] is 71.4%.
Consider `Cc1cc(C)n(S(=O)(=O)c2ccc3[nH]c(=O)c(=O)[nH]c3c2)n1`, for which the IC50 in series [16] turned out to be 0.0044 µM; in the series with MDA-MB-436 it was 2.57 µM. Also, the IC50 at 48 h in series [17] stood at 81.7 µM.
Consider `O=C(CCN1CCOCC1)Nc1ccc(-c2nc3cc(Cl)ccc3o2)cc1`, for which the IC50 turned out to be 0.07 µM in series [18], 6.14 µM with MDA-MB-231 [19] and 6.05 µM in the series with MCF7 [20].
